This note sets out measurements from patent US20230413820A1, “HERBICIDAL N-HETEROARYL PYRAZOLE COMPOUNDS” (SYNGENTA CROP PROTECTION AG, priority 2020, published 2023).

Common to all, as to format: in vivo
Experiment [1] deals with Amaranthus retoflexus (AMARE). In words: Post-emergence herbicide glasshouse test. The following applies: 250 g/ha, sprayed after 8 days cultivation, evaluated after 13 days. The method, then:
(§1) Seeds of a variety of test species (Abutilon theophrasti (ABUTH), Amaranthus retoflexus (AMARE), Echinochloa crus-galli (ECHCG), Ipomoea hederacea (IPOHE), Setaria faberi (SETFA)) are sown in standard soil in pots. After cultivation for one day (pre-emergence) or after 8 days cultivation (post-emergence) under controlled conditions in a glasshouse (at 24/16° C., day/night; 14 hours light; 65% humidity), the plants are sprayed with an aqueous spray solution derived from the formulation of the technical active ingredient in acetone/water (50:50) solution containing 0.5% Tween 20 (polyoxyethelyene sorbitan monolaurate, CAS RN 9005-64-5). Compounds are applied at 250 g/ha unless otherwise stated. The test plants are then grown in a glasshouse under controlled conditions in a glasshouse (at 24/16° C., day/night; 14 hours light; 65% humidity) and watered twice daily. After 13 days for pre- and post-emergence, the test is evaluated for the percentage damage caused to the plant. The biological activities are shown in the following table on a five-point scale (5=81-100%; 4=61-80%; 3=41-60%; 2=21-40%; 1=0-20%).

The subject of experiment [2] is Echinochloa crus-galli (ECHCG). Briefly: Post-emergence herbicide glasshouse test. Conditions: 250 g/ha, sprayed after 8 days cultivation, evaluated after 13 days. The method, then:
as §1

In experiment [3] the test system is Ipomoea hederacea (IPOHE). In words: Post-emergence herbicide glasshouse test. The following applies: 250 g/ha, sprayed after 8 days cultivation, evaluated after 13 days. On the procedure:
as §1

For experiment [4], the system named is Setaria faberi (SETFA). In words: Post-emergence herbicide glasshouse test. Conditions: 250 g/ha, sprayed after 8 days cultivation, evaluated after 13 days. The method, then:
as §1

Experiment [5] concerns Echinochloa crus-galli (ECHCG). Briefly: Pre-emergence herbicide glasshouse test. The following applies: 250 g/ha, sprayed after one day cultivation, evaluated after 13 days. The method, then: as §1
Experiment [6] deals with Ipomoea hederacea (IPOHE). Briefly: Pre-emergence herbicide glasshouse test. Conditions: 250 g/ha, sprayed after one day cultivation, evaluated after 13 days. On the procedure:
as §1

Experiment [7] deals with Setaria faberi (SETFA). In words: Pre-emergence herbicide glasshouse test. The following applies: 250 g/ha, sprayed after one day cultivation, evaluated after 13 days. The method, then:
as §1

The subject of experiment [8] is Amaranthus retoflexus (AMARE). Briefly: Pre-emergence herbicide glasshouse test. The following applies: 250 g/ha, sprayed after one day cultivation, evaluated after 13 days. The method, then: as §1
Experiment [9] deals with Abutilon theophrasti (ABUTH). Briefly: Post-emergence herbicide glasshouse test. The following applies: 250 g/ha, sprayed after 8 days cultivation, evaluated after 13 days. On the procedure:
as §1

The subject of experiment [10] is Abutilon theophrasti (ABUTH). Briefly: Pre-emergence herbicide glasshouse test. The following applies: 250 g/ha, sprayed after one day cultivation, evaluated after 13 days. On the procedure:
as §1

For `Fc1cc(Cl)cnc1-n1nc(C(F)(F)F)cc1Oc1cccc(OC(F)F)n1` [Compound 1.031], the “percentage damage caused to the plant, AMARE” value in experiment [1] was 4 (4=61-80%). Besides, the “percentage damage caused to the plant, ECHCG” value in experiment [2] and in experiment [5] was 1 (1=0-20%) in each case. The “percentage damage caused to the plant, IPOHE” value in experiment [3] and in experiment [6] was 1 (1=0-20%) throughout. Also, the “percentage damage caused to the plant, SETFA” value with Setaria faberi (SETFA) [4] and in the experiment with Setaria faberi (SETFA) [7] was 2 (2=21-40%) throughout.
As to `Cc1nccc(Oc2cc(C(F)(F)F)nn2-c2ncc(Cl)cn2)n1` [Compound 1.015], the “percentage damage caused to the plant, AMARE” value is 2 (2=21-40%) in experiment [1] and 3 (3=41-60%) in experiment [8]. Further, the “percentage damage caused to the plant, ECHCG” value in experiment [2] and in experiment [5] was 1 (1=0-20%) each time. For the same molecule, the “percentage damage caused to the plant, IPOHE” value in experiment [3] and in experiment [6] was 1 (1=0-20%) throughout. In addition, the “percentage damage caused to the plant, SETFA” value was 1 (1=0-20%) in the experiment on Setaria faberi (SETFA) [4] and 2 (2=21-40%) with Setaria faberi (SETFA) [7].
As to `FC(F)Oc1cccc(Oc2cc(C(F)(F)F)nn2-c2ncccn2)n1` [Compound 1.027], the “percentage damage caused to the plant, AMARE” value is given as 4 (4=61-80%) in [1] and 3 (3=41-60%) in [8]. Further, the “percentage damage caused to the plant, ECHCG” value in [2] and in experiment [5] was 1 (1=0-20%) in each case. The “percentage damage caused to the plant, IPOHE” value in [3] and in [6] was 2 (2=21-40%) throughout. Also, the “percentage damage caused to the plant, SETFA” value in the experiment on Setaria faberi (SETFA) [4] and in the experiment with Setaria faberi (SETFA) [7] was 1 (1=0-20%) each time.
Turning to `FC(F)Oc1cnc(-n2nc(C(F)(F)F)cc2Oc2cccc(OC(F)F)n2)nc1` [Compound 1.028], the “percentage damage caused to the plant, AMARE” value in [1] and in experiment [8] was 5 (5=81-100%) in each case. Also, the “percentage damage caused to the plant, ECHCG” value in [2] and in experiment [5] was 5 (5=81-100%) each time. For the same molecule, the “percentage damage caused to the plant, IPOHE” value in experiment [3] was 3 (3=41-60%); in [6], 1 (1=0-20%). Also, the “percentage damage caused to the plant, SETFA” value in the experiment on Setaria faberi (SETFA) [4] and in the experiment with Setaria faberi (SETFA) [7] was 5 (5=81-100%) in each case.
For the molecule `FC(F)(F)c1cccc(Oc2cc(C(F)(F)F)nn2-c2ncc(Cl)cn2)n1` [Compound 1.004], the “percentage damage caused to the plant, ABUTH” value in experiment [9] and in [10] was 4 (4=61-80%) each time. Further, the “percentage damage caused to the plant, AMARE” value in experiment [1] and in [8] was 5 (5=81-100%) each time. The “percentage damage caused to the plant, ECHCG” value was 4 (4=61-80%) in [2] and 5 (5=81-100%) in experiment [5]. For the same molecule, the “percentage damage caused to the plant, IPOHE” value in experiment [3] is on record as 3 (3=41-60%); in [6], 2 (2=21-40%). Also, the results for the “percentage damage caused to the plant, SETFA” value in the experiment with Setaria faberi (SETFA) [4] and in the experiment on Setaria faberi (SETFA) [7] were 4 (4=61-80%) and 5 (5=81-100%), respectively.
For `FC(F)c1cccc(Oc2cc(C(F)(F)F)nn2-c2ncc(Cl)cn2)n1` [Compound 1.003], the “percentage damage caused to the plant, ABUTH” value in experiment [9] is 3 (3=41-60%); in experiment [10], 1 (1=0-20%). The “percentage damage caused to the plant, AMARE” value in experiment [1] and in experiment [8] was 5 (5=81-100%) throughout. The “percentage damage caused to the plant, ECHCG” value in experiment [2] and in experiment [5] was 4 (4=61-80%) each time. Also, the “percentage damage caused to the plant, IPOHE” value in experiment [3] is on record as 4 (4=61-80%); in [6] it was 2 (2=21-40%). The “percentage damage caused to the plant, SETFA” value in the experiment on Setaria faberi (SETFA) [4] is reported as 4 (4=61-80%); in the experiment on Setaria faberi (SETFA) [7], 2 (2=21-40%).
Take `FC(F)(F)c1cc(Oc2cccc(Cl)n2)n(-c2ncc(Cl)cn2)n1` [Compound 1.001]: the “percentage damage caused to the plant, ABUTH” value in [9] is reported as 2 (2=21-40%); in [10], 1 (1=0-20%). Also, the “percentage damage caused to the plant, AMARE” value in experiment [1] and in [8] was 5 (5=81-100%) in each case. The entries for the “percentage damage caused to the plant, ECHCG” value in [2] and in experiment [5] were 4 (4=61-80%) and 5 (5=81-100%), respectively. For the same molecule, the “percentage damage caused to the plant, IPOHE” value in [3] is 2 (2=21-40%); in experiment [6], 1 (1=0-20%). The “percentage damage caused to the plant, SETFA” value was 3 (3=41-60%) with Setaria faberi (SETFA) [4] and 5 (5=81-100%) in the experiment on Setaria faberi (SETFA) [7].
With `Fc1cnc(-n2nc(C(F)(F)F)cc2Oc2cccc(C(F)(F)F)n2)nc1` [Compound 1.024], the “percentage damage caused to the plant, AMARE” value in experiment [1] is 2 (2=21-40%); in [8], 5 (5=81-100%). Also, the “percentage damage caused to the plant, ECHCG” value in experiment [2] and in [5] was 1 (1=0-20%) in each case. The “percentage damage caused to the plant, IPOHE” value in experiment [3] and in experiment [6] was 1 (1=0-20%) each time. In addition, the “percentage damage caused to the plant, SETFA” value with Setaria faberi (SETFA) [4] and in the experiment with Setaria faberi (SETFA) [7] was 1 (1=0-20%) throughout.
For the molecule `N#Cc1ccc(-n2nc(C(F)(F)F)cc2Oc2cccc(OC(F)F)n2)nc1` [Compound 1.029], the figures for the “percentage damage caused to the plant, AMARE” value in [1] and in experiment [8] were 5 (5=81-100%) and 4 (4=61-80%), respectively. Moreover, the “percentage damage caused to the plant, ECHCG” value in [2] is recorded as 1 (1=0-20%); in experiment [5], 2 (2=21-40%). For the same molecule, the “percentage damage caused to the plant, IPOHE” value is recorded as 3 (3=41-60%) in experiment [3] and 1 (1=0-20%) in [6]. Besides, the “percentage damage caused to the plant, SETFA” value is 1 (1=0-20%) in the experiment on Setaria faberi (SETFA) [4] and 2 (2=21-40%) in the experiment on Setaria faberi (SETFA) [7].
For the molecule `FC(F)(F)c1cc(Oc2ccnc(Cl)n2)n(-c2ncc(Cl)cn2)n1` [Compound 1.012], the “percentage damage caused to the plant, AMARE” value in experiment [1] is listed as 2 (2=21-40%); in experiment [8], 3 (3=41-60%). For the same molecule, the “percentage damage caused to the plant, ECHCG” value in [2] and in [5] was 1 (1=0-20%) throughout. Further, the “percentage damage caused to the plant, IPOHE” value in experiment [3] and in [6] was 1 (1=0-20%) in each case. The “percentage damage caused to the plant, SETFA” value in the experiment with Setaria faberi (SETFA) [4] is on record as 1 (1=0-20%); with Setaria faberi (SETFA) [7], 2 (2=21-40%).
In the case of `FC(F)(F)c1cc(Oc2ccnc(C(F)(F)F)n2)n(-c2ncc(Cl)cn2)n1` [Compound 1.011], the entries for the “percentage damage caused to the plant, AMARE” value in experiment [1] and in experiment [8] were 4 (4=61-80%) and 5 (5=81-100%), respectively. Moreover, the “percentage damage caused to the plant, ECHCG” value in experiment [2] and in [5] was 4 (4=61-80%) in each case. Moreover, the “percentage damage caused to the plant, IPOHE” value in experiment [3] and in [6] was 1 (1=0-20%) each time. Besides, the “percentage damage caused to the plant, SETFA” value is 4 (4=61-80%) in the experiment on Setaria faberi (SETFA) [4] and 5 (5=81-100%) in the experiment with Setaria faberi (SETFA) [7].
In the case of `N#Cc1cc(Cl)cnc1-n1nc(C(F)(F)F)cc1Oc1cccc(OC(F)F)n1` [Compound 1.030], the results for the “percentage damage caused to the plant, AMARE” value in experiment [1] and in experiment [8] were 3 (3=41-60%) and 2 (2=21-40%), respectively. Moreover, the “percentage damage caused to the plant, ECHCG” value in [2] and in experiment [5] was 1 (1=0-20%) throughout. For the same molecule, the “percentage damage caused to the plant, IPOHE” value in experiment [3] and in [6] was 1 (1=0-20%) throughout. The entries for the “percentage damage caused to the plant, SETFA” value in the experiment with Setaria faberi (SETFA) [4] and with Setaria faberi (SETFA) [7] were 2 (2=21-40%) and 1 (1=0-20%), respectively.
`N#Cc1cccc(Oc2cc(C(F)(F)F)nn2-c2ncc(Cl)cn2)n1` [Compound 1.023]: the “percentage damage caused to the plant, AMARE” value in experiment [1] is 4 (4=61-80%); in [8] it was 5 (5=81-100%). Also, the “percentage damage caused to the plant, ECHCG” value in experiment [2] and in [5] was 4 (4=61-80%) in each case. Moreover, the results for the “percentage damage caused to the plant, IPOHE” value in experiment [3] and in [6] were 3 (3=41-60%) and 4 (4=61-80%), respectively. For the same molecule, the “percentage damage caused to the plant, SETFA” value with Setaria faberi (SETFA) [4] was 4 (4=61-80%); in the experiment with Setaria faberi (SETFA) [7], 5 (5=81-100%).
